Assay results: ChEMBL document CHEMBL2177037, “10'-Fluorovinblastine and 10'-Fluorovincristine: Synthesis of a Key Series of Modified Vinca Alkaloids” (ACS Med Chem Lett, 2011)
Calls of active or inactive are those of the source. The rule behind the calls is not given here.

Columns and labels:
[1] = test system: HCT-116/VM46; test: Cytotoxicity against human vinblastin-resistant HCT116/VM46 cells; format: functional, cell-based
[2] = test system: HCT-116; test: Cytotoxicity against human HCT116 cells; format: functional, cell-based
[3] = test system: L1210; test: Cytotoxicity against mouse L1210 cells; format: functional, cell-based
[4] = test system: HCT-116; test: Antitumor activity against human HCT116 cells xenografted in mouse assessed as mouse survival at 0.5 mg/kg; format: functional, organism-based; design: dose 0.5 mg/kg
[5] = test system: L1210; test: Ratio of vincristine IC50 to compound IC50 for mouse L1210 cells; format: functional
[6] = test system: HCT-116; test: Ratio of vincristine IC50 to compound IC50 for human HCT116 cells; format: functional
[7] = test system: HCT-116/VM46; test: Ratio of vincristine IC50 to compound IC50 for human vincristine-resistant HCT116/VM46 cells; format: functional
[8] = test system: HCT-116; test: Ratio of vinblastin IC50 to compound IC50 for human HCT116 cells; format: functional
[9] = test system: HCT-116/VM46; test: Antitumor activity against human HCT116/VM46 cells xenografted in mouse assessed as mouse survival at 0.01 to 0.5 mg/kg, ip after 110 days; format: functional, organism-based
[10] = test system: L1210; test: Ratio of vinblastin IC50 to compound IC50 for mouse L1210 cells; format: functional
[11] = test system: HCT-116/VM46; test: Ratio of vinblastin IC50 to compound IC50 for human vinblastin-resistant HCT116/VM46 cells; format: functional

`CCC1=C[C@H]2CN(CCc3c([nH]c4ccc(I)cc34)[C@@](C(=O)OC)(c3cc4c(cc3OC)N(C)[C@H]3[C@@](O)(C(=O)OC)[C@H](OC(C)=O)[C@]5(CC)C=CCN6CC[C@]43[C@@H]65)C2)C1` gave an IC50 [1] of 1800 nM, an IC50 [2] of 600 nM and an IC50 [3] of 620 nM.

`CC[C@]1(O)C[C@H]2CN(CCc3c([nH]c4c(Br)cccc34)[C@@](C(=O)OC)(c3cc4c(cc3OC)N(C)[C@H]3[C@@](O)(C(=O)OC)[C@H](OC(C)=O)[C@]5(CC)C=CCN6CC[C@]43[C@@H]65)C2)C1` showed an IC50 [1] of 910 nM, an IC50 [2] of 80 nM and an IC50 [3] of 50 nM.

With `CCC1=C[C@H]2CN(CCc3c([nH]c4ccc(Cl)cc34)[C@@](C(=O)OC)(c3cc4c(cc3OC)N(C)[C@H]3[C@@](O)(C(=O)OC)[C@H](OC(C)=O)[C@]5(CC)C=CCN6CC[C@]43[C@@H]65)C2)C1` the IC50 [1] was 800 nM, the IC50 [2] was 70 nM and the IC50 [3] was 60 nM.

With `CCC1=C[C@H]2CN(CCc3c([nH]c4ccc(O)cc34)[C@@](C(=O)OC)(c3cc4c(cc3OC)N(C)[C@H]3[C@@](O)(C(=O)OC)[C@H](OC(C)=O)[C@]5(CC)C=CCN6CC[C@]43[C@@H]65)C2)C1` the IC50 [1] was 7200 nM, the IC50 [2] was 500 nM and the IC50 [3] was 590 nM.

`CCC1=C[C@H]2CN(CCc3c([nH]c4ccccc34)[C@@](C(=O)OC)(c3cc4c(cc3OC)N(C)[C@H]3[C@@](O)(C(=O)OC)[C@H](OC(C)=O)[C@]5(CC)C=CCN6CC[C@]43[C@@H]65)C2)C1` gave an IC50 [1] of 600 nM, an IC50 [2] of 75 nM and an IC50 [3] of 65 nM.

Compound `CCC1=C[C@H]2CN(CCc3c([nH]c4c(I)cccc34)[C@@](C(=O)OC)(c3cc4c(cc3OC)N(C)[C@H]3[C@@](O)(C(=O)OC)[C@H](OC(C)=O)[C@]5(CC)C=CCN6CC[C@]43[C@@H]65)C2)C1` has an IC50 [1] of 6200 nM, an IC50 [2] of 870 nM and an IC50 [3] of 690 nM.

Compound `CC[C@]1(O)C[C@H]2CN(CCc3c([nH]c4ccc(C#N)cc34)[C@@](C(=O)OC)(c3cc4c(cc3OC)N(C)[C@H]3[C@@](O)(C(=O)OC)[C@H](OC(C)=O)[C@]5(CC)C=CCN6CC[C@]43[C@@H]65)C2)C1` has an IC50 [1] greater than 10000 nM, an IC50 [2] of 620 nM and an IC50 [3] of 630 nM.

Compound `CC[C@]1(O)C[C@H]2CN(CCc3c([nH]c4ccccc34)[C@@](C(=O)OC)(c3cc4c(cc3OC)N(C=O)[C@H]3[C@@](O)(C(=O)OC)[C@H](OC(C)=O)[C@]5(CC)C=CCN6CC[C@]43[C@@H]65)C2)C1` [VINCRISTINE] has an IC50 [2] of 7 nM and an IC50 [3] of 6 nM.

`CCC1=C[C@H]2CN(CCc3c([nH]c4ccc(Br)cc34)[C@@](C(=O)OC)(c3cc4c(cc3OC)N(C)[C@H]3[C@@](O)(C(=O)OC)[C@H](OC(C)=O)[C@]5(CC)C=CCN6CC[C@]43[C@@H]65)C2)C1` gave an IC50 [1] of 860 nM, an IC50 [2] of 70 nM and an IC50 [3] of 65 nM.

With `CC[C@]1(O)C[C@H]2CN(CCc3c([nH]c4ccc(Br)cc34)[C@@](C(=O)OC)(c3cc4c(cc3OC)N(C)[C@H]3[C@@](O)(C(=O)OC)[C@H](OC(C)=O)[C@]5(CC)C=CCN6CC[C@]43[C@@H]65)C2)C1` the IC50 [1] was 270 nM, the IC50 [2] was 8.6 nM and the IC50 [3] was 8 nM.

In the case of `CC[C@]1(O)C[C@@H]2CN(CCc3c([nH]c4ccccc34)[C@@](C(=O)OC)(c3cc4c(cc3OC)N(C)[C@H]3[C@@](O)(C(=O)OC)[C@H](OC(C)=O)[C@]5(CC)C=CCN6CC[C@]43[C@@H]65)C2)C1` [VINBLASTINE], the IC50 [1] is reported as 600 nM and the Activity [4] is reported as “Active”.

`CC[C@]1(O)C[C@H]2CN(CCc3c([nH]c4ccc(SC)cc34)[C@@](C(=O)OC)(c3cc4c(cc3OC)N(C)[C@H]3[C@@](O)(C(=O)OC)[C@H](OC(C)=O)[C@]5(CC)C=CCN6CC[C@]43[C@@H]65)C2)C1` was tested, and the IC50 [1] was 780 nM, the IC50 [2] was 50 nM and the IC50 [3] was 50 nM.

Compound `CCC1=C[C@H]2CN(CCc3c([nH]c4ccc(F)cc34)[C@@](C(=O)OC)(c3cc4c(cc3OC)N(C)[C@H]3[C@@](O)(C(=O)OC)[C@H](OC(C)=O)[C@]5(CC)C=CCN6CC[C@]43[C@@H]65)C2)C1` has an IC50 [1] of 290 nM, an IC50 [2] of 50 nM and an IC50 [3] of 30 nM.

Compound `CC[C@]1(O)C[C@H]2CN(CCc3c([nH]c4ccc(I)cc34)[C@@](C(=O)OC)(c3cc4c(cc3OC)N(C)[C@H]3[C@@](O)(C(=O)OC)[C@H](OC(C)=O)[C@]5(CC)C=CCN6CC[C@]43[C@@H]65)C2)C1` has an IC50 [1] of 840 nM, an IC50 [2] of 60 nM and an IC50 [3] of 55 nM.

`CCC1=C[C@H]2CN(CCc3c([nH]c4ccc(C)cc34)[C@@](C(=O)OC)(c3cc4c(cc3OC)N(C)[C@H]3[C@@](O)(C(=O)OC)[C@H](OC(C)=O)[C@]5(CC)C=CCN6CC[C@]43[C@@H]65)C2)C1` showed an IC50 [1] of 640 nM, an IC50 [2] of 65 nM and an IC50 [3] of 65 nM.

With `CCC1=C[C@H]2CN(CCc3c([nH]c4c(Cl)cccc34)[C@@](C(=O)OC)(c3cc4c(cc3OC)N(C)[C@H]3[C@@](O)(C(=O)OC)[C@H](OC(C)=O)[C@]5(CC)C=CCN6CC[C@]43[C@@H]65)C2)C1` the IC50 [1] was 7300 nM, the IC50 [2] was 880 nM and the IC50 [3] was 640 nM.

For `CCC1=C[C@H]2CN(CCc3c([nH]c4c(F)cccc34)[C@@](C(=O)OC)(c3cc4c(cc3OC)N(C)[C@H]3[C@@](O)(C(=O)OC)[C@H](OC(C)=O)[C@]5(CC)C=CCN6CC[C@]43[C@@H]65)C2)C1`, the IC50 [1] was 6700 nM, the IC50 [2] was 790 nM and the IC50 [3] was 650 nM.

For `CC[C@]1(O)C[C@H]2CN(CCc3c([nH]c4ccc(F)cc34)[C@@](C(=O)OC)(c3cc4c(cc3OC)N(C=O)[C@H]3[C@@](O)(C(=O)OC)[C@H](OC(C)=O)[C@]5(CC)C=CCN6CC[C@]43[C@@H]65)C2)C1`, the “Ratio IC50” value [5] was 5, the IC50 [2] was 1.5 nM and the IC50 [3] was 0.8 nM. The “Ratio IC50” value [6] was 5 and the “Ratio IC50” value [7] was 5.

`CC[C@]1(O)C[C@H]2CN(CCc3c([nH]c4ccc(F)cc34)[C@@](C(=O)OC)(c3cc4c(cc3OC)N(C)[C@H]3[C@@](O)(C(=O)OC)[C@H](OC(C)=O)[C@]5(CC)C=CCN6CC[C@]43[C@@H]65)C2)C1` was tested, and the “Ratio IC50” value [8] was 8, the Activity [9] was “Active” and the “Ratio IC50” value [10] was 8. The IC50 [1] was 80 nM, the IC50 [2] was 0.8 nM and the IC50 [3] was 0.7 nM. The “Ratio IC50” value [11] was 8.

For `CCC1=C[C@H]2CN(CCc3c([nH]c4c(Br)cccc34)[C@@](C(=O)OC)(c3cc4c(cc3OC)N(C)[C@H]3[C@@](O)(C(=O)OC)[C@H](OC(C)=O)[C@]5(CC)C=CCN6CC[C@]43[C@@H]65)C2)C1`, the IC50 [1] was 3900 nM, the IC50 [2] was 740 nM and the IC50 [3] was 600 nM.

For `CC[C@]1(O)C[C@H]2CN(CCc3c([nH]c4ccc(Cl)cc34)[C@@](C(=O)OC)(c3cc4c(cc3OC)N(C)[C@H]3[C@@](O)(C(=O)OC)[C@H](OC(C)=O)[C@]5(CC)C=CCN6CC[C@]43[C@@H]65)C2)C1`, the IC50 [1] was 720 nM, the IC50 [2] was 7.6 nM and the IC50 [3] was 6.2 nM.

With `CC[C@]1(O)C[C@H]2CN(CCc3c([nH]c4c(Cl)cccc34)[C@@](C(=O)OC)(c3cc4c(cc3OC)N(C)[C@H]3[C@@](O)(C(=O)OC)[C@H](OC(C)=O)[C@]5(CC)C=CCN6CC[C@]43[C@@H]65)C2)C1` the IC50 [1] was 5000 nM, the IC50 [2] was 220 nM and the IC50 [3] was 330 nM.

`CC[C@]1(O)C[C@H]2CN(CCc3c([nH]c4c(I)cccc34)[C@@](C(=O)OC)(c3cc4c(cc3OC)N(C)[C@H]3[C@@](O)(C(=O)OC)[C@H](OC(C)=O)[C@]5(CC)C=CCN6CC[C@]43[C@@H]65)C2)C1` was tested, and the IC50 [1] was 910 nM, the IC50 [2] was 80 nM and the IC50 [3] was 55 nM.

In the case of `CC[C@]1(O)C[C@H]2CN(CCc3c([nH]c4c(F)cccc34)[C@@](C(=O)OC)(c3cc4c(cc3OC)N(C)[C@H]3[C@@](O)(C(=O)OC)[C@H](OC(C)=O)[C@]5(CC)C=CCN6CC[C@]43[C@@H]65)C2)C1`, the IC50 [1] is reported as 730 nM, the IC50 [2] is reported as 65 nM and the IC50 [3] is reported as 50 nM.

`CCC1=C[C@H]2CN(CCc3c([nH]c4ccc(C#N)cc34)[C@@](C(=O)OC)(c3cc4c(cc3OC)N(C)[C@H]3[C@@](O)(C(=O)OC)[C@H](OC(C)=O)[C@]5(CC)C=CCN6CC[C@]43[C@@H]65)C2)C1` showed an IC50 [1] of 920 nM, an IC50 [2] of 70 nM and an IC50 [3] of 65 nM.

`CC[C@]1(O)C[C@H]2CN(CCc3c([nH]c4ccc(OC)cc34)[C@@](C(=O)OC)(c3cc4c(cc3OC)N(C)[C@H]3[C@@](O)(C(=O)OC)[C@H](OC(C)=O)[C@]5(CC)C=CCN6CC[C@]43[C@@H]65)C2)C1` was tested, and the IC50 [1] was greater than 10000 nM, the IC50 [2] was 720 nM and the IC50 [3] was 670 nM.

`CC[C@]1(O)C[C@H]2CN(CCc3c([nH]c4ccc(C)cc34)[C@@](C(=O)OC)(c3cc4c(cc3OC)N(C)[C@H]3[C@@](O)(C(=O)OC)[C@H](OC(C)=O)[C@]5(CC)C=CCN6CC[C@]43[C@@H]65)C2)C1` gave an IC50 [1] of 600 nM, an IC50 [2] of 7.8 nM and an IC50 [3] of 7.8 nM.

`CCC1=C[C@H]2CN(CCc3c([nH]c4ccc(OC)cc34)[C@@](C(=O)OC)(c3cc4c(cc3OC)N(C)[C@H]3[C@@](O)(C(=O)OC)[C@H](OC(C)=O)[C@]5(CC)C=CCN6CC[C@]43[C@@H]65)C2)C1` gave an IC50 [1] of 5500 nM, an IC50 [2] of 640 nM and an IC50 [3] of 550 nM.

For `CCC1=C[C@H]2CN(CCc3c([nH]c4ccc(SC)cc34)[C@@](C(=O)OC)(c3cc4c(cc3OC)N(C)[C@H]3[C@@](O)(C(=O)OC)[C@H](OC(C)=O)[C@]5(CC)C=CCN6CC[C@]43[C@@H]65)C2)C1`, the IC50 [1] was 770 nM, the IC50 [2] was 85 nM and the IC50 [3] was 60 nM.
